Assay results taken from patent publication US4472386A, “5-Fluoro-(β-uridine or 2'-deoxy-β-uridine) derivatives, a process for producing the same and a carcinostatic agent containing the same” (Toyama Chemical Co., Ltd., priority 1978, dated 1984).

Tests used:
[1] = test system: Ehrlich ascites carcinoma; assay: Inhibition of Ehrlich solid tumor in mice, intraperitoneal administration (Table 1); format: in vivo, ddY mice
Method: (§1) 1. Experiment on the inhibition of Ehrlich solid tumor
Ehrlich ascites carcinoma was subcutaneously inoculated into the right inguinal region of ddY mice (5 weeks old, male, 8 mice per group) with 3×10^6 cells per mouse.
24 Hours after the inoculation, a test drug suspended or dissolved in 5% HCO 60 (a product manufactured by Nikkol) was administered intraperitoneally successively once daily for 7 days. To the control group, the same quantity as above of 5% HCO 60 was intraperitoneally administered in the same manner. Fourteen days after the inoculation, the tumor was excised and weighed, from which the average tumor weight ratio between the test group and the control group (T/C) was determined.

[2] = test system: Ehrlich ascites carcinoma; assay: Inhibition of Ehrlich solid tumor in mice, oral administration starting six days after inoculation (Table 2); format: in vivo, ddY mice
Method: as §1
Ehrlich ascites carcinoma was subcutaneously inoculated into the inguinal region of ddY mice (5 weeks old, male, 8 mice per group) with 3×10^6 cells per mouse. Six days after the inoculation, a test drug dissolved or suspended in 0.5% CMC solution was administered orally to the test group successively once daily for 10 days, while the same quantity as above of 0.5% CMC solution was orally administered to the control group. Twenty one days after the inoculation, the tumor was excised and weighed, from which the average tumor weight ratio between the test group and the control group (T/C) was determined.

[3] = test system: Sarcoma-180 ascites tumor; assay: Inhibition of Sarcoma-180 ascites tumor in mice, intravenous administration (Table 3); format: in vivo, ddY mice; conditions: 10 mg/kg i.v. once daily for 7 days
Method: 2. Experiment on the inhibition of Sarcoma-180 ascites tumor
Sarcoma-180 ascites tumor was subcutaneously inoculated into the right inguinal region of ddY mice (5 weeks old, male, 8 mice per group) with 3×10^6 cells per mouse. Twenty four hours after the inoculation,a test drug dissolved in 10% polyethylene glycol was administered intravenously to the test group successively once daily for 7 days, while the same quantity as above of 10% polyethylene glycol was intravenously administered to the control group. Ten days after the inoculation, the tumor was excised and weighed, from which the average tumor weight ratio between the test group and the control group (T/C) was determined.

[4] = Acute toxicity test (b), oral LD50 (Table 4); conditions: mouse, in vivo; oral, 3 weeks, Van der Waerden method
Method: (b) The test compound was suspended in 0.25% CMC solution and administered orally to SLC-ddY mice (5 weeks old, male, 6 mice per group). The number of dead mice was counted over the subsequent 3 weeks. LD50 value was calculated according to the method of Van der Waerden.

[5] = test system: Ehrlich ascites carcinoma; assay: Carcinostatic test, oral, ED values (Table 5); format: in vivo, ddY mice; conditions: Mus musculus, 336 h, oral once daily for 10 days, least square method
Method: Ehrlich ascites carcinoma was subcutaneously inoculated into the right inguinal region of ddY mice (5 weeks old, male, 8 mice per group) with 8×10^6 cells per mouse. Twenty four hours after the inoculation,5, 10, 20 or 40 mg/kg of a test drug suspended or dissolved in polyethylene glycol was administered orally to the test group successively once daily for 10 days, while the same quantity as above of 10% polyethylene glycol was administered orally to the control group. Fourteen days after the inoculation, the tumor was excised and weighed, from which the average tumor weight ratio between the test group and the control group (T/C) was calculated. ED value was determined by the least square method.

[6] = C. Heidelberger et al. (1958); cited from earlier work
[7] = C. Heidelberger et al. (1958); cited from earlier work; remark: listed apart in the source
[8] = cited from earlier work
nucleotide-phosphorylase = conditions: G. D. Birnie (1963); cited from earlier work
[9] = 40 mg/kg i.p. once daily for 7 days
[10] = 60 mg/kg orally once daily for 10 days

Structure (SMILES): O=c1[nH]c(=O)n([C@H]2C[C@H](O)[C@@H](CO)O2)cc1F [FUDR, 5-fluoro-2'-deoxy-β-uridine, reference compound]
- Body weight change [1, 9]: +6.5 g
- No. of surviving mice/No. of total mice used [1, 9]: 8/8
- response vs control in vivo at 40 mg/kg ([1]; Mus musculus, Ehrlich, ip, 336 h, read-out: T/C (average tumor weight ratio between test group and control group)): 47.1%
- Body weight change [2, 10]: -2.7 g
- No. of surviving mice/No. of total mice used [2, 10]: 8/8
- T/C (average tumor weight ratio between test group and control group) ([2]; 60 mg/kg orally once daily for 10 days from day 6, Ehrlich, day 21): 48.6%
- Body weight change [3]: +3.9 g
- No. of surviving mice/No. of total mice used [3]: 8/8
- T/C (average tumor weight ratio between test group and control group) ([3]; Sarcoma-180, day 10): 56.3%
- LD50 at 504 h [4]: 1330 mg/kg
- ED30 ([5]; read-out: ED30): 19 mg/kg
- ED40 ([5]; read-out: ED40): 24 mg/kg
- carcinostatic activity in vitro [6]: intense carcinostatic activity in vitro
- toxicity [7]: low toxicity
- persistency in vivo [8]: lacks persistency
- excretion ([8]; in vivo): excreted rapidly
- decomposition by nucleotide-phosphorylase to yield 5-fluorouracil (nucleotide-phosphorylase): readily decomposed by nucleotide-phosphorylase
